Numbers after ± are expanded uncertainties.
Key:
[1] = activity coefficient (dimensionless); of the first substance listed, at infinite dilution; xn = mol fraction of the nth substance listed; conditions: 101.33 kPa, Liquid, Chromatography, x1 = 0
[2] = 101.33 kPa, Liquid, Vibrating tube method

Row | SMILES | activity coefficient ([1]; 323.15 K) | activity coefficient ([1]; 333.15 K) | activity coefficient ([1]; 343.15 K) | activity coefficient ([1]; 353.15 K) | mass density ([2]; 303.15 K) [kg/m3] | mass density ([2]; 313.15 K) [kg/m3] | mass density ([2]; 323.15 K) [kg/m3] | mass density ([2]; 333.15 K) [kg/m3] | mass density ([2]; 343.15 K) [kg/m3] | mass density ([2]; 353.15 K) [kg/m3] | activity coefficient ([1]; 303.15 K) | activity coefficient ([1]; 313.15 K)
1 | Cc1ccccc1C [1,2-dimethylbenzene] + CCCCn1cc[n+](C)c1.[O-][Cl+3]([O-])([O-])[O-] | 4.09 ± 0.43 | 4.16 ± 0.44 | 4.27 ± 0.45 | 4.37 ± 0.46 |  |  |  |  |  |  |  | 
2 | Cc1cccc(C)c1 [1,3-dimethylbenzene] + CCCCn1cc[n+](C)c1.[O-][Cl+3]([O-])([O-])[O-] | 4.99 ± 0.52 | 5.08 ± 0.53 | 5.28 ± 0.55 | 5.36 ± 0.56 |  |  |  |  |  |  |  | 
3 | Cc1ccc(C)cc1 [1,4-dimethylbenzene] + CCCCn1cc[n+](C)c1.[O-][Cl+3]([O-])([O-])[O-] | 4.82 ± 0.51 | 4.91 ± 0.52 | 5.13 ± 0.54 | 5.21 ± 0.55 |  |  |  |  |  |  |  | 
4 | C1COCCO1 [1,4-dioxane] + CCCCn1cc[n+](C)c1.[O-][Cl+3]([O-])([O-])[O-] | 1 ± 0.1 | 1.02 ± 0.1 | 1.1 ± 0.11 | 1.14 ± 0.12 |  |  |  |  |  |  |  | 
5 | CCCCn1cc[n+](C)c1.[O-][Cl+3]([O-])([O-])[O-] [1-butyl-3-methylimidazolium perchlorate] |  |  |  |  | 1247.87 ± 2.4 | 1240.83 ± 2.4 | 1233.88 ± 2.4 | 1227.01 ± 2.4 | 1220.19 ± 2.4 | 1213.44 ± 2.4 |  | 
6 | CC(C)CC(C)(C)C [2,2,4-trimethylpentane] + CCCCn1cc[n+](C)c1.[O-][Cl+3]([O-])([O-])[O-] | 107 ± 11 | 119 ± 12 | 122 ± 13 | 125 ± 13 |  |  |  |  |  |  | 100 ± 11 | 102 ± 11
7 | CC(C)CO [2-methyl-1-propanol] + CCCCn1cc[n+](C)c1.[O-][Cl+3]([O-])([O-])[O-] | 2.9 ± 0.3 | 2.67 ± 0.28 | 2.48 ± 0.26 | 2.32 ± 0.24 |  |  |  |  |  |  |  | 
8 | CC(C)CCO [3-methylbutan-1-ol] + CCCCn1cc[n+](C)c1.[O-][Cl+3]([O-])([O-])[O-] |  | 3.49 ± 0.37 | 3.21 ± 0.34 | 2.97 ± 0.31 |  |  |  |  |  |  |  | 
9 | CC(C)=O [acetone] + CCCCn1cc[n+](C)c1.[O-][Cl+3]([O-])([O-])[O-] | 0.94 ± 0.1 | 0.98 ± 0.1 | 1.05 ± 0.11 | 1.08 ± 0.11 |  |  |  |  |  |  | 0.84 ± 0.09 | 0.91 ± 0.09
10 | CC#N [acetonitrile] + CCCCn1cc[n+](C)c1.[O-][Cl+3]([O-])([O-])[O-] | 0.63 ± 0.07 | 0.65 ± 0.07 | 0.67 ± 0.07 | 0.69 ± 0.07 |  |  |  |  |  |  | 0.61 ± 0.07 | 0.62 ± 0.07
11 | c1ccccc1 [benzene] + CCCCn1cc[n+](C)c1.[O-][Cl+3]([O-])([O-])[O-] | 1.97 ± 0.21 | 2 ± 0.21 | 2.08 ± 0.22 | 2.17 ± 0.23 |  |  |  |  |  |  | 1.78 ± 0.19 | 1.82 ± 0.19
12 | CCCCO [butan-1-ol] + CCCCn1cc[n+](C)c1.[O-][Cl+3]([O-])([O-])[O-] |  | 2.73 ± 0.29 | 2.49 ± 0.26 | 2.39 ± 0.25 |  |  |  |  |  |  |  | 
13 | CCC(C)O (centres undefined) [butan-2-ol] + CCCCn1cc[n+](C)c1.[O-][Cl+3]([O-])([O-])[O-] | 2.66 ± 0.28 | 2.61 ± 0.27 | 2.47 ± 0.26 | 2.37 ± 0.25 |  |  |  |  |  |  |  | 2.91 ± 0.31
14 | C1CCCCC1 [cyclohexane] + CCCCn1cc[n+](C)c1.[O-][Cl+3]([O-])([O-])[O-] | 35.2 ± 3.7 | 35.4 ± 3.7 | 36.2 ± 3.8 | 37.5 ± 4 |  |  |  |  |  |  | 34.5 ± 3.6 | 34.6 ± 3.6
15 | C1=CCCCC1 [cyclohexene] + CCCCn1cc[n+](C)c1.[O-][Cl+3]([O-])([O-])[O-] | 14.7 ± 1.6 | 14.6 ± 1.5 | 14.4 ± 1.5 | 14.2 ± 1.5 |  |  |  |  |  |  | 15.1 ± 1.6 | 14.8 ± 1.6
16 | CCCCCCCCCC [decane] + CCCCn1cc[n+](C)c1.[O-][Cl+3]([O-])([O-])[O-] | 217 ± 23 | 204 ± 22 | 200 ± 21 | 192 ± 20 |  |  |  |  |  |  | 226 ± 24 | 219 ± 23
17 | ClCCl [dichloromethane] + CCCCn1cc[n+](C)c1.[O-][Cl+3]([O-])([O-])[O-] | 0.96 ± 0.1 | 1.01 ± 0.1 | 1.1 ± 0.11 | 1.13 ± 0.12 |  |  |  |  |  |  | 0.84 ± 0.09 | 0.91 ± 0.09
18 | CCO [ethanol] + CCCCn1cc[n+](C)c1.[O-][Cl+3]([O-])([O-])[O-] | 1.59 ± 0.17 | 1.5 ± 0.16 | 1.45 ± 0.15 | 1.44 ± 0.15 |  |  |  |  |  |  | 1.67 ± 0.17 | 1.59 ± 0.17

Row | SMILES | activity coefficient ([1]; 323.15 K) | activity coefficient ([1]; 333.15 K) | activity coefficient ([1]; 343.15 K) | activity coefficient ([1]; 353.15 K) | mass density ([2]; 303.15 K) [kg/m3] | mass density ([2]; 313.15 K) [kg/m3] | mass density ([2]; 323.15 K) [kg/m3] | mass density ([2]; 333.15 K) [kg/m3] | mass density ([2]; 343.15 K) [kg/m3] | mass density ([2]; 353.15 K) [kg/m3] | activity coefficient ([1]; 303.15 K) | activity coefficient ([1]; 313.15 K)
19 | CCOC(C)=O [ethyl acetate] + CCCCn1cc[n+](C)c1.[O-][Cl+3]([O-])([O-])[O-] | 2.46 ± 0.26 | 2.54 ± 0.27 | 2.69 ± 0.28 | 2.78 ± 0.29 |  |  |  |  |  |  | 2.22 ± 0.23 | 2.31 ± 0.24
20 | CCc1ccccc1 [ethylbenzene] + CCCCn1cc[n+](C)c1.[O-][Cl+3]([O-])([O-])[O-] | 5.05 ± 0.53 | 5.11 ± 0.54 | 5.29 ± 0.56 | 5.35 ± 0.56 |  |  |  |  |  |  |  | 
21 | CCCCCCC [heptane] + CCCCn1cc[n+](C)c1.[O-][Cl+3]([O-])([O-])[O-] | 99.1 ± 10 | 108 ± 11 | 115 ± 12 | 121 ± 13 |  |  |  |  |  |  | 85.9 ± 9.1 | 91.6 ± 9.7
22 | CCCCCC [hexane] + CCCCn1cc[n+](C)c1.[O-][Cl+3]([O-])([O-])[O-] | 98 ± 10 | 107 ± 11 | 112 ± 12 | 118 ± 12 |  |  |  |  |  |  | 81.7 ± 8.6 | 89.2 ± 9.4
23 | CO [methanol] + CCCCn1cc[n+](C)c1.[O-][Cl+3]([O-])([O-])[O-] | 1.05 ± 0.11 | 1.02 ± 0.1 | 1.01 ± 0.1 | 1 ± 0.1 |  |  |  |  |  |  | 1.07 ± 0.11 | 1.06 ± 0.11
24 | CC1CCCCC1 [methylcyclohexane] + CCCCn1cc[n+](C)c1.[O-][Cl+3]([O-])([O-])[O-] | 47 ± 5 | 47.3 ± 5 | 47.3 ± 5 | 47.8 ± 5 |  |  |  |  |  |  | 46.5 ± 4.9 | 46.7 ± 4.9
25 | CCCCCCCCC [nonane] + CCCCn1cc[n+](C)c1.[O-][Cl+3]([O-])([O-])[O-] | 142 ± 15 | 137 ± 14 | 135 ± 14 | 133 ± 14 |  |  |  |  |  |  | 151 ± 16 | 142 ± 15
26 | CCCCCCCC [octane] + CCCCn1cc[n+](C)c1.[O-][Cl+3]([O-])([O-])[O-] | 119 ± 12 | 119 ± 13 | 122 ± 13 | 127 ± 13 |  |  |  |  |  |  | 109 ± 12 | 111 ± 12
27 | CCCCCO [pentan-1-ol] + CCCCn1cc[n+](C)c1.[O-][Cl+3]([O-])([O-])[O-] |  | 3.88 ± 0.41 | 3.55 ± 0.37 | 3.23 ± 0.34 |  |  |  |  |  |  |  | 
28 | CCCO [propan-1-ol] + CCCCn1cc[n+](C)c1.[O-][Cl+3]([O-])([O-])[O-] | 2.05 ± 0.22 | 1.99 ± 0.21 | 1.87 ± 0.2 | 1.82 ± 0.19 |  |  |  |  |  |  |  | 
29 | CC(C)O [propan-2-ol] + CCCCn1cc[n+](C)c1.[O-][Cl+3]([O-])([O-])[O-] | 2.06 ± 0.22 | 2.06 ± 0.22 | 1.93 ± 0.2 | 1.92 ± 0.2 |  |  |  |  |  |  | 2.27 ± 0.24 | 2.18 ± 0.23
30 | C=Cc1ccccc1 [styrene] + CCCCn1cc[n+](C)c1.[O-][Cl+3]([O-])([O-])[O-] |  | 2.29 ± 0.24 | 2.42 ± 0.25 | 2.5 ± 0.26 |  |  |  |  |  |  |  | 
31 | ClC(Cl)(Cl)Cl [tetrachloromethane] + CCCCn1cc[n+](C)c1.[O-][Cl+3]([O-])([O-])[O-] | 4.1 ± 0.43 | 4.22 ± 0.44 | 4.6 ± 0.48 | 4.67 ± 0.49 |  |  |  |  |  |  | 3.61 ± 0.38 | 3.93 ± 0.41
32 | C1CCOC1 [tetrahydrofuran] + CCCCn1cc[n+](C)c1.[O-][Cl+3]([O-])([O-])[O-] | 1.67 ± 0.17 | 1.94 ± 0.2 | 1.94 ± 0.2 | 2.06 ± 0.22 |  |  |  |  |  |  | 1.5 ± 0.16 | 1.57 ± 0.16
33 | Cc1ccccc1 [toluene] + CCCCn1cc[n+](C)c1.[O-][Cl+3]([O-])([O-])[O-] | 3.1 ± 0.33 | 3.14 ± 0.33 | 3.29 ± 0.35 | 3.38 ± 0.36 |  |  |  |  |  |  |  | 2.96 ± 0.31
34 | ClC(Cl)Cl [trichloromethane] + CCCCn1cc[n+](C)c1.[O-][Cl+3]([O-])([O-])[O-] | 0.93 ± 0.09 | 0.98 ± 0.1 | 1.1 ± 0.11 | 1.16 ± 0.12 |  |  |  |  |  |  | 0.78 ± 0.08 | 0.87 ± 0.09
35 | O [water] + CCCCn1cc[n+](C)c1.[O-][Cl+3]([O-])([O-])[O-] |  | 1.02 ± 0.1 | 1.01 ± 0.1 | 1 ± 0.1 |  |  |  |  |  |  |  | 

From the NIST ThermoML archive (doi:10.1016/j.jct.2017.07.012)
